Experimental data reported in publication PMC6364417, “Kinase inhibitor library screening identifies synergistic drug combinations effective in sensitive and resistant melanoma cells” (Journal of Experimental & Clinical Cancer Research : CR, 2019).
Where a name gives a salt, the structure may show the parent alone.

Assays:
Assay in all cases: Kinase inhibitor library screening, PrestoBlue cell viability, 1 or 10 μM, 72 h
[1] = test system: A375-XP cells (Vemurafenib-resistant); settings: for viability at 1 µM / viability at 10 µM: Homo sapiens, A-375, 72 h; for viability at 1 µM: read-out: cell viability, A375 XP, 1μΜ; for viability at 10 µM: read-out: cell viability, A375 XP, 10μΜ
[2] = test system: 501Mel cells (parental); settings: 72 h; for viability at 1 µM / viability at 10 µM: Homo sapiens; for viability at 1 µM: read-out: cell viability, 501Mel Parental, 1μΜ; for viability at 10 µM: read-out: cell viability, 501Mel Parental, 10μΜ
Method in brief: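 Single-point screen at two doses over three days. Parental and BRAF-inhibitor-resistant sublines (XP: Vemurafenib; GP: Dabrafenib) were assessed by PrestoBlue viability, reported relative to untreated cells.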

[3] = test system: IGR37 cells (parental); settings: for viability at 1 µM / viability at 10 µM: Homo sapiens, IGR-37, 72 h; for viability at 1 µM: read-out: cell viability, IGR37 Parental, 1μΜ; for viability at 10 µM: read-out: cell viability, IGR37 Parental, 10μΜ
[4] = test system: A375-GP cells (Dabrafenib-resistant); settings: for viability at 1 µM / viability at 10 µM: Homo sapiens, A-375, 72 h; for viability at 1 µM: read-out: cell viability, A375 GP, 1μΜ; for viability at 10 µM: read-out: cell viability, A375 GP, 10μΜ
[5] = test system: IGR37-XP cells (Vemurafenib-resistant); settings: for viability at 1 µM / viability at 10 µM: Homo sapiens, IGR-37, 72 h; for viability at 1 µM: read-out: cell viability, IGR37 XP, 1μΜ; for viability at 10 µM: read-out: cell viability, IGR37 XP, 10μΜ
[6] = test system: A375 cells (parental); settings: for viability at 1 µM / viability at 10 µM: Homo sapiens, A-375, 72 h; for viability at 1 µM: read-out: cell viability, A375 Parental, 1μΜ; for viability at 10 µM: read-out: cell viability, A375 Parental, 10μΜ
[7] = test system: 501Mel-GP cells (Dabrafenib-resistant); settings: 72 h; for viability at 1 µM / viability at 10 µM: Homo sapiens; for viability at 1 µM: read-out: cell viability, 501Mel GP, 1μΜ; for viability at 10 µM: read-out: cell viability, 501Mel GP, 10μΜ
[8] = test system: IGR37-GP cells (Dabrafenib-resistant); settings: for viability at 1 µM / viability at 10 µM: Homo sapiens, IGR-37, 72 h; for viability at 1 µM: read-out: cell viability, IGR37 GP, 1μΜ; for viability at 10 µM: read-out: cell viability, IGR37 GP, 10μΜ
[9] = test system: 501Mel-XP cells (Vemurafenib-resistant); settings: 72 h; for viability at 1 µM / viability at 10 µM: Homo sapiens; for viability at 1 µM: read-out: cell viability, 501Mel XP, 1μΜ; for viability at 10 µM: read-out: cell viability, 501Mel XP, 10μΜ

| SMILES | viability at 1 µM [1] [%] | viability at 10 µM [1] [%] | viability at 1 µM [2] [%] | viability at 10 µM [2] [%] | viability at 1 µM [3] [%] | viability at 10 µM [3] [%] | viability at 1 µM [4] [%] | viability at 10 µM [4] [%] | viability at 1 µM [5] [%] | viability at 10 µM [5] [%] | viability at 1 µM [6] [%] | viability at 10 µM [6] [%] | viability at 1 µM [7] [%] | viability at 10 µM [7] [%] | viability at 1 µM [8] [%] | viability at 10 µM [8] [%] | viability at 1 µM [9] [%] | viability at 10 µM [9] [%] | other results |
| --- | --- | --- | --- | --- | --- | --- | --- | --- | --- | --- | --- | --- | --- | --- | --- | --- | --- | --- | --- |
| Cc1cc(Nc2cc(N3CCN(C)CC3)nc(/C=C/c3ccccc3)n2)n[nH]1 [ENMD-2076] | 79.9 | 19.2 | 97 | 3.4 | 96.5 | 25.6 | 65.8 | 20.9 | 89.3 | 2.2 | 67.6 | 21.2 | 99.4 | 25.5 | 90.4 | 5.2 | 69.3 | 1.1 | – |
| Cn1cc(C2=C(c3cn(C4CCN(Cc5ccccn5)CC4)c4ccccc34)C(=O)NC2=O)c2ccccc21 [Enzastaurin (LY317615)] | – | – | – | – | – | – | – | – | – | – | – | – | – | – | – | – | – | – | Cell viability in kinase inhibitor library screening, A375 XP, 1μΜ ([1]; A375 XP, 1μΜ, 72 h): 103.5; Cell viability in kinase inhibitor library screening, A375 XP, 10μΜ ([1]; A375 XP, 10μΜ, 72 h): 66.7; Cell viability in kinase inhibitor library screening, 501Mel Parental, 1μΜ ([2]; 501Mel Parental, 1μΜ, in %): 78.4; Cell viability in kinase inhibitor library screening, 501Mel Parental, 10μΜ ([2]; 501Mel Parental, 10μΜ, in %): 63.8; Cell viability in kinase inhibitor library screening, IGR37 Parental, 10μΜ ([3]; IGR37 Parental, 10μΜ, 72 h, in %): 82.6; Cell viability in kinase inhibitor library screening, A375 GP, 1μΜ ([4]; A375 GP, 1μΜ, 72 h): 97.4; Cell viability in kinase inhibitor library screening, A375 GP, 10μΜ ([4]; A375 GP, 10μΜ, 72 h): 58.1; Cell viability in kinase inhibitor library screening, IGR37 XP, 10μΜ ([5]; IGR37 XP, 10μΜ, 72 h): 31.7%; Cell viability in kinase inhibitor library screening, IGR37 XP, 1μΜ ([5]; IGR37 XP, 1μΜ, 72 h, in %): 98.3; Cell viability in kinase inhibitor library screening, A375 Parental, 10μΜ ([6]; A375 Parental, 10μΜ, 72 h): 55.3; Cell viability in kinase inhibitor library screening, A375 Parental, 1μΜ ([6]; A375 Parental, 1μΜ, 72 h): 99.1; Cell viability in kinase inhibitor library screening, 501Mel GP, 1μΜ ([7]; 501Mel GP, 1μΜ, in %): 92.5; Cell viability in kinase inhibitor library screening, 501Mel GP, 10μΜ ([7]; 501Mel GP, 10μΜ, in %): 54.6; Cell viability in kinase inhibitor library screening, IGR37 GP, 10μΜ ([8]; IGR37 GP, 10μΜ, 72 h): 58.7%; Cell viability in kinase inhibitor library screening, IGR37 GP, 1μΜ ([8]; IGR37 GP, 1μΜ, 72 h, in %): 100.0; Cell viability in kinase inhibitor library screening, 501Mel XP, 1μΜ ([9]; 501Mel XP, 1μΜ, in %): 85.4; Cell viability in kinase inhibitor library screening, 501Mel XP, 10μΜ ([9]; 501Mel XP, 10μΜ, in %): 48.1 |
| C#Cc1cccc(Nc2ncnc3cc(OCCOC)c(OCCOC)cc23)c1 [Erlotinib HCl] | 100 | 83.4 | 97.2 | 84.3 | 95.5 | 92 | 96.2 | 69.1 | 92.4 | 51.9 | 100 | 73.4 | 95 | 61.2 | 93.1 | 67.5 | 86.3 | 38 | – |
| CN1CC[C@H](c2c(O)cc(O)c3c(=O)cc(-c4ccccc4Cl)oc23)[C@H](O)C1 [Flavopiridol hydrochloride] | – | – | – | – | – | – | – | – | – | – | – | – | – | – | – | – | – | – | cell viability (kinase inhibitor library screening) ([1]; A375 XP, 1μΜ, 72 h): 5.6%; cell viability (kinase inhibitor library screening) ([1]; A375 XP, 10μΜ, 72 h): 5.1%; cell viability (kinase inhibitor library screening) ([2]; 501Mel Parental, 1μΜ): 1.1%; cell viability (kinase inhibitor library screening) ([2]; 501Mel Parental, 10μΜ): 1.3%; cell viability (kinase inhibitor library screening) ([3]; IGR37 Parental, 1μΜ, 72 h): 2.2%; cell viability (kinase inhibitor library screening) ([3]; IGR37 Parental, 10μΜ, 72 h): 2.2%; cell viability (kinase inhibitor library screening) ([4]; A375 GP, 1μΜ, 72 h): 4.6%; cell viability (kinase inhibitor library screening) ([4]; A375 GP, 10μΜ, 72 h): 3.0%; cell viability (kinase inhibitor library screening) ([5]; IGR37 XP, 1μΜ, 72 h): 2.9%; cell viability (kinase inhibitor library screening) ([5]; IGR37 XP, 10μΜ, 72 h): 3.2%; cell viability (kinase inhibitor library screening) ([6]; A375 Parental, 10μΜ, 72 h): 7.2%; cell viability (kinase inhibitor library screening) ([6]; A375 Parental, 1μΜ, 72 h): 7.0%; cell viability (kinase inhibitor library screening) ([7]; 501Mel GP, 1μΜ): 0.662%; cell viability (kinase inhibitor library screening) ([7]; 501Mel GP, 10μΜ): 0.4%; cell viability (kinase inhibitor library screening) ([8]; IGR37 GP, 1μΜ, 72 h): 4.5%; cell viability (kinase inhibitor library screening) ([8]; IGR37 GP, 10μΜ, 72 h): 3.8%; cell viability (kinase inhibitor library screening) ([9]; 501Mel XP, 1μΜ): 0.473%; cell viability (kinase inhibitor library screening) ([9]; 501Mel XP, 10μΜ): 0.3% |
